Here are results for one compound from article PMC6366404, “4-(3-Nitrophenyl)thiazol-2-ylhydrazone derivatives as antioxidants and selective hMAO-B inhibitors: synthesis, biological activity and computational analysis” (Journal of Enzyme Inhibition and Medicinal Chemistry, 2019).

For one test, the target named is T1, hMAO-B (Homo sapiens, UniProt P27338).
T1 sequence (P27338 1-520): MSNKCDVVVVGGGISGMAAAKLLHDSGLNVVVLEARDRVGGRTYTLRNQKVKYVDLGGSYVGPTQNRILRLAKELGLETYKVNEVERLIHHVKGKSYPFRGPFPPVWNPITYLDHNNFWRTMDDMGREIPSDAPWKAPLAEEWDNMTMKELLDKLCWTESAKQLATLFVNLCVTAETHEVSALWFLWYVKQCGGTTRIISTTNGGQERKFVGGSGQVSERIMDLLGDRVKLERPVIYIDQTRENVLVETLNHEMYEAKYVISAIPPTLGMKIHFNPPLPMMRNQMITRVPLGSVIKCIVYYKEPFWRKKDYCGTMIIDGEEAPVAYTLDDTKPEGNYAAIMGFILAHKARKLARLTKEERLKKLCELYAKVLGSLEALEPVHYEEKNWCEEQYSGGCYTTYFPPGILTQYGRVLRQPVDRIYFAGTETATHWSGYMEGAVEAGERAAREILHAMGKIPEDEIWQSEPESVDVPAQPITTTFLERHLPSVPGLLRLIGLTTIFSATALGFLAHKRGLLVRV
The test is described as follows: Reversibility of MAO-B inhibition by dialysis. Type of test: biochemical. The procedure: Stock solutions of the test compounds were prepared in DMSO and added to the incubations to yield 4% DMSO. The samples were dialyzed for 24 h at 4 °C in 80 ml of dialysis buffer using Slide-A-Lyzer® dialysis cassettes (Thermo Scientific) with a molecular weight cut-off of 10,000 and a sample volume capacity of 0.5–3 ml. The dialysis buffer was replaced at 3 and 7 h after the start of dialysis. Following dialysis, the dialysis samples were diluted twofold with the addition of kynuramine to yield a kynuramine concentration and inhibitor concentration of 50 µM and 2 × IC50, respectively. The reactions (500 µL) were incubated for 20 min at 37 °C and terminated with NaOH (400 μL, 2 N) and water (1000 µL). The fluorescence of 4-hydroxyquinoline in these samples was measured as described for the IC50 determination above. […] Undialysed mixtures of MAO-B and the test inhibitors were maintained at 4 °C for 24 h and diluted and assayed as above. All reactions were carried out in triplicate and the residual enzyme catalytic rates are expressed as mean ± SD.
Reversibility of MAO inhibition is an important factor to consider when evaluating the inhibition properties of potential inhibitors. Irreversible MAO inhibitors, particularly of the MAO-A isoform, are associated with dangerous adverse effects such as the cheese reaction, which occurs when irreversible MAO-A inhibitors are taken with tyramine-rich food[51]. […] The samples were diluted twofold and the residual MAO-B activity was measured. For reversible inhibition, dialysis is expected to reverse inhibition by the test inhibitors and restore enzyme activity to the level of the negative control. […] A final experiment consisted of incubations containing MAO-B and tested inhibitors which were not dialyzed, but maintained for 24 h.

Test [1] is described as follows: Cupric ion reducing activity (CUPRAC).

Take `CC(=NNc1nc(-c2cccc([N+](=O)[O-])c2)cs1)c1cccs1` [Compound 4, 1-(4-(3-Nitrophenyl)thiazol-2-yl)-2-(1-(thiophen-2-yl)ethylidene)hydrazine]: on hMAO-B (dialysis 24 h), the “Reversibility of MAO-B inhibition” value is recorded as “partially reversible”. Besides, at hMAO-B (inhibitor at 4 × IC50, not dialyzed, maintained 24 h), the “Residual MAO-B activity, undialysed mixtures” value was 33%. Further, the “Residual MAO-B activity after dialysis” value at hMAO-B (inhibitor at 4 × IC50, preincubated 15 min, dialyzed 24 h, relative to negative control) was 61%. In addition, in test [1], it took 520 ± 20 µM to reach a half-maximal effect (EC50).
